# Data taken from patent US20240124432A1, “HERBICIDAL COMPOUNDS” (SYNGENTA CROP PROTECTION AG, priority 2020, published 2024).
# Columns and labels:
# Type in all cases: in vivo
# IPOHE [1] = assay: Pre-emergence biological efficacy; settings: Ipomoea hederacea, 312 h, evaluated after 13 days, read-out: damage to plant (100=total damage to plant; 0=no damage to plant)
# In short: (§1)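 Pots sown and kept one day in glasshouse (24/19° C., 16 h light), then sprayed with compound formulated in IF50 (50 g/l) diluted in 0.2% Genapol XO80 to final dose. Grown at 24/18° C., 15 h light, 50% humidity; damage scored after 13 days, 0 none to 100 total.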
# AMAPA [2] = assay: Pre-emergence biological efficacy; settings: Amaranthus palmeri, 312 h, evaluated after 13 days, read-out: damage to plant (100=total damage to plant; 0=no damage to plant)
# In short: as §1
# ECHCG [3] = assay: Pre-emergence biological efficacy; settings: Echinochloa crus-galli, 312 h, evaluated after 13 days, read-out: damage to plant (100=total damage to plant; 0=no damage to plant)
# In short: as §1
# EPHHL [4] = assay: Pre-emergence biological efficacy; settings: Euphorbia heterophylla, 312 h, evaluated after 13 days, read-out: damage to plant (100=total damage to plant; 0=no damage to plant)
# In short: as §1
# SETFA [5] = assay: Pre-emergence biological efficacy; settings: Setaria faberi, 312 h, evaluated after 13 days, read-out: damage to plant (100=total damage to plant; 0=no damage to plant)
# In short: as §1
# LOLPE [6] = assay: Pre-emergence biological efficacy; settings: Lolium perenne, 312 h, evaluated after 13 days, read-out: damage to plant (100=total damage to plant; 0=no damage to plant)
# In short: as §1
# IPOHE [7] = assay: Post-emergence biological efficacy; settings: Ipomoea hederacea, 312 h, evaluated after 13 days, read-out: damage to plant (100=total damage to plant; 0=no damage to plant)
# In short: (§2)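 Plants grown 14 days in glasshouse, then sprayed post-emergence with compound formulated in IF50 and diluted in 0.2% Genapol XO80 to the desired dose. Damage scored after 13 days on a 0–100 scale (100 = total damage).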
# AMAPA [8] = assay: Post-emergence biological efficacy; settings: Amaranthus palmeri, 312 h, evaluated after 13 days, read-out: damage to plant (100=total damage to plant; 0=no damage to plant)
# In short: as §2
# DIGSA = assay: Post-emergence biological efficacy; settings: Digitaria sanguinalis, 312 h, evaluated after 13 days, read-out: damage to plant (100=total damage to plant; 0=no damage to plant)
# In short: as §2
# ECHCG [9] = assay: Post-emergence biological efficacy; settings: Echinochloa crus-galli, 312 h, evaluated after 13 days, read-out: damage to plant (100=total damage to plant; 0=no damage to plant)
# In short: as §2
# EPHHL [10] = assay: Post-emergence biological efficacy; settings: Euphorbia heterophylla, 312 h, evaluated after 13 days, read-out: damage to plant (100=total damage to plant; 0=no damage to plant)
# In short: as §2
# CHEAL = assay: Post-emergence biological efficacy; settings: Chenopodium album, 312 h, evaluated after 13 days, read-out: damage to plant (100=total damage to plant; 0=no damage to plant)
# In short: as §2
# SETFA [11] = assay: Post-emergence biological efficacy; settings: Setaria faberi, 312 h, evaluated after 13 days, read-out: damage to plant (100=total damage to plant; 0=no damage to plant)
# In short: as §2
# LOLPE [12] = assay: Post-emergence biological efficacy; settings: Lolium perenne, 312 h, evaluated after 13 days, read-out: damage to plant (100=total damage to plant; 0=no damage to plant)
# In short: as §2
# ELEIN = assay: Post-emergence biological efficacy; settings: 312 h, evaluated after 13 days, read-out: damage to plant (100=total damage to plant; 0=no damage to plant)
# In short: as §2
smiles,measurement,setting,value
"CCOC(=O)C1(C)CC(c2cc(-c3ncc(S(C)(=O)=O)cc3Cl)c(F)cc2Cl)=NO1 (stereo not drawn) [Compound 1-643, Ethyl 3-[2-chloro-5-(3-chloro-5-methylsulfonyl-2-pyridyl)-4-fluoro-phenyl]-5-methyl-4H-isoxazole-5-carboxylate]",pest or weed control at 250 g/ha,IPOHE [1],100%
same,pest or weed control at 250 g/ha,AMAPA [2],100%
same,pest or weed control at 250 g/ha,ECHCG [3],100%
same,pest or weed control at 250 g/ha,EPHHL [4],100%
same,pest or weed control at 250 g/ha,SETFA [5],100%
same,pest or weed control at 250 g/ha,LOLPE [6],100%
same,pest or weed control at 250 g/ha,IPOHE [7],100%
same,pest or weed control at 250 g/ha,AMAPA [8],100%
same,pest or weed control at 250 g/ha,DIGSA,100%
same,pest or weed control at 250 g/ha,ECHCG [9],100%
same,pest or weed control at 250 g/ha,EPHHL [10],100%
same,pest or weed control at 250 g/ha,CHEAL,100%
same,pest or weed control at 250 g/ha,SETFA [11],100%
same,pest or weed control at 250 g/ha,LOLPE [12],100%
same,pest or weed control at 250 g/ha,ELEIN,100%
"CCOC(=O)C1(C)CC(c2cc(-c3ccc(C(F)(F)F)nc3Cl)c(F)cc2Cl)=NO1 (stereo not drawn) [Compound 1-655, Ethyl 3-[2-chloro-5-[2-chloro-6-(trifluoromethyl)-3-pyridyl]-4-fluoro-phenyl]-5-methyl-4H-isoxazole-5-carboxylate]",pest or weed control at 250 g/ha,IPOHE [1],40%
same,pest or weed control at 250 g/ha,AMAPA [2],100%
same,pest or weed control at 250 g/ha,ECHCG [3],40%
same,pest or weed control at 250 g/ha,EPHHL [4],90%
same,pest or weed control at 250 g/ha,SETFA [5],30%
same,pest or weed control at 250 g/ha,LOLPE [6],40%
same,pest or weed control at 250 g/ha,IPOHE [7],100%
same,pest or weed control at 250 g/ha,AMAPA [8],100%
same,pest or weed control at 250 g/ha,DIGSA,70%
same,pest or weed control at 250 g/ha,ECHCG [9],90%
same,pest or weed control at 250 g/ha,EPHHL [10],100%
same,pest or weed control at 250 g/ha,CHEAL,100%
same,pest or weed control at 250 g/ha,SETFA [11],90%
same,pest or weed control at 250 g/ha,LOLPE [12],80%
same,pest or weed control at 250 g/ha,ELEIN,80%
"CCOC(=O)C1(C)CC(c2cc(-c3c(Cl)cc(C(F)(F)F)c[n+]3[O-])ccc2Cl)=NO1 (stereo not drawn) [Compound 1-663, Ethyl 3-[2-chloro-5-(3-chloro-1-oxido-5-trifluoromethyl-2-pyridyl)-phenyl]-5-methyl-4H-isoxazole-5-carboxylate]",pest or weed control at 250 g/ha,IPOHE [1],90%
same,pest or weed control at 250 g/ha,AMAPA [2],100%
same,pest or weed control at 250 g/ha,ECHCG [3],30%
same,pest or weed control at 250 g/ha,EPHHL [4],90%
same,pest or weed control at 250 g/ha,SETFA [5],40%
same,pest or weed control at 250 g/ha,LOLPE [6],50%
same,pest or weed control at 250 g/ha,IPOHE [7],100%
same,pest or weed control at 250 g/ha,AMAPA [8],100%
same,pest or weed control at 250 g/ha,DIGSA,100%
same,pest or weed control at 250 g/ha,ECHCG [9],100%
same,pest or weed control at 250 g/ha,EPHHL [10],100%
same,pest or weed control at 250 g/ha,CHEAL,100%
same,pest or weed control at 250 g/ha,SETFA [11],100%
same,pest or weed control at 250 g/ha,LOLPE [12],100%
same,pest or weed control at 250 g/ha,ELEIN,100%
"CCOC(=O)C1(C)CC(c2cc(-c3c(Cl)cc(C(F)(F)F)c[n+]3[O-])c(F)cc2Cl)=NO1 (stereo not drawn) [Compound 1-667, Ethyl 3-[2-chloro-5-(3-chloro-1-oxido-5-trifluoromethyl-2-pyridyl)-4-fluoro-phenyl]-5-methyl-4H-isoxazole-5-carboxylate]",pest or weed control at 250 g/ha,IPOHE [1],100%
same,pest or weed control at 250 g/ha,AMAPA [2],100%
same,pest or weed control at 250 g/ha,ECHCG [3],100%
same,pest or weed control at 250 g/ha,EPHHL [4],100%
same,pest or weed control at 250 g/ha,SETFA [5],100%
same,pest or weed control at 250 g/ha,LOLPE [6],100%
same,pest or weed control at 250 g/ha,IPOHE [7],100%
same,pest or weed control at 250 g/ha,AMAPA [8],100%
same,pest or weed control at 250 g/ha,DIGSA,100%
same,pest or weed control at 250 g/ha,ECHCG [9],100%
same,pest or weed control at 250 g/ha,EPHHL [10],100%
same,pest or weed control at 250 g/ha,CHEAL,100%
same,pest or weed control at 250 g/ha,SETFA [11],100%
same,pest or weed control at 250 g/ha,LOLPE [12],100%
same,pest or weed control at 250 g/ha,ELEIN,100%
